The source of these data is US20230055705A1, “SUBSTITUTED THIOPHENE CARBOXAMIDES AND DERIVATIVES THEREOF” (Bayer Aktiengesellschaft, priority 2019, published 2023).

In data set [1] the test system is salicylate responsive promoter sequence of the PR1 (pathogenesis-related protein I) gene (AT2G14610). Briefly: Induction of defense gene expression in Arabidopsis thaliana (PR1 promoter-GFP reporter plants). In kind it is in vivo. The note with it: Arabidopsis thaliana, 72 h, 3rd day after spraying, mock treated leaves set as 1.00, read-out: relative fluorescence value; for fold induction at 75 ppm: 75 ppm of compound. The method in brief: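 Transgenic A. thaliana carrying GFP under the salicylate-responsive PR1 promoter, grown five days, then sprayed with compounds. Whole-plant fluorescence imaged and quantified on day 3 post-spray, expressed relative to mock-treated leaf background set at 1.00.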

The next data set concerns Alternaria alternata. Description: Alternaria alternata in vitro cell test. It counts as cell-based. The conditions noted are these: 120 h, 20 ppm of active ingredient, 5 days incubation, read-out: efficacy (inhibition of fungal growth). On the procedure:
(§1) • Solvent: DMSO • Culture medium: 14.6 g anhydrous D-glucose (VWR), 7.1 g Mycological Peptone (Oxoid), 1.4 g granulated Yeast Extract (Merck), QSP 1 liter • Inoculum: spores suspension
(§2) Fungicides were solubilized in DMSO and the solution used to prepare the required range of concentrations. The final concentration of DMSO used in the assay was ≤[…]1%.
A spore suspension of A. alternata was prepared and diluted to the desired spore density.
Fungicides were evaluated for their ability to inhibit spore germination and mycelium growth in liquid culture assay. The compounds were added in the desired concentration to the culture medium with spores. After 5 days incubation, fungi-toxicity of compounds was determined by spectrometric measurement of mycelium growth. Inhibition of fungal growth was determined by comparing the absorbance values in wells containing the fungicides with the absorbance in control wells without fungicides.

The test system of data set [2] is Xanthomonas campestris pv. campestris. Briefly: Xanthomonas campestris pv. campestris in vitro cell test. It counts as cell-based. The note with it: 20 ppm of active ingredient, 24 h incubation, read-out: efficacy (inhibition of bacteria growth). On the procedure:
• Solvent: DMSO • Culture medium: LB broth medium (Luria Broth Miller) Sigma • Inoculum: bacteria suspension
Compounds were solubilized in DMSO and the solution used to prepare the required range of concentrations. The final concentration of DMSO used in the assay was ≤1%.
(§3) Inoculum was prepared from a pre-culture of bacteria grown in liquid medium and diluted to the desired optical density (OD).
(§4) Compounds were evaluated for their ability to inhibit bacteria growth in liquid culture assay. The compounds were added in the desired concentrations to culture medium containing the bacteria suspension. After 24 h of incubation, the efficacy of compounds was determined by spectrometric measurement of bacteria growth. Inhibition was determined by comparing the absorbance values in wells containing the compounds with the absorbance in control wells without active ingredients.

Data set [3] deals with Pseudomonas syringae pv. tomato. Briefly: Pseudomonas syringae pv. tomato in vitro cell test. It counts as cell-based. The conditions noted are these: 20 ppm of active ingredient, 24 h incubation, read-out: efficacy (inhibition of bacteria growth). The procedure:
Culture medium: LB broth medium (Luria Broth Miller) Sigma
Inoculum: bacteria suspension
Compounds were solubilized in DMSO and the solution used to prepare the required range of concentrations. The final concentration of DMSO used in the assay was 1%.
as §3, §4

A further data set deals with Peronospora parasitica. Description: In vivo preventive test on Peronospora parasitica (Crucifer downy mildew). The conditions noted are these: Hyaloperonospora parasitica, in Brassica oleracea, 120 h, cabbage, evaluated 5 days after inoculation, read-out: efficacy; for pest or weed control at 31 ppm: 31 ppm of active ingredient; for pest or weed control at 125 ppm: 125 ppm of active ingredient; for pest or weed control at 500 ppm: 500 ppm of active ingredient. The method, boiled down:
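Young cabbage plants were sprayed with compound in acetone/DMSO/Tween diluted with water, then inoculated 72 h later with a Peronospora parasitica spore suspension. Plants were kept 5 days at 20 °C and 100% RH. Efficacy was scored with 0% equal to solvent-treated controls and 100% meaning no disease.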

In data set [4] the test system is Xanthomonas campestris pv. campestris. Briefly: In vivo preventive test on Xanthomonas campestris pv. campestris (black rot on cabbage). The note with it: evaluated 8 or 10 days after inoculation, read-out: efficacy; for pest or weed control at 31 ppm: 31 ppm of active ingredient; for pest or weed control at 125 ppm: 125 ppm of active ingredient. The method in brief: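 Young cabbage plants sprayed with compound in acetone/DMSO/Tween diluted in water; solvent-only controls. Leaves sprayed with bacterial suspension 72 h later, then held 8 or 10 days at 27° C and 95% relative humidity. Efficacy scored 8 or 10 days post-inoculation, 0% matching controls, 100% meaning no disease.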

In a further data set the test system is Uromyces appendiculatus. Briefly: In vivo preventive test on Uromyces appendiculatus (bean rust). The note with it: 240 h, evaluated 10 days after inoculation, read-out: efficacy; for pest or weed control at 125 ppm: 125 ppm of active ingredient; for pest or weed control at 500 ppm: 500 ppm of active ingredient. The method, boiled down: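 Young bean plants sprayed with compound in acetone/DMSO/Tween diluted in water, inoculated 72 h later with U. appendiculatus spore suspension. Held 24 h at 20 °C, 100% RH, then 9 days at 20 °C, 70-80% RH. Efficacy scored 10 days post-inoculation versus solvent-treated controls (0% = control, 100% = no disease).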

Data set [5] deals with Pseudomonas syringae pv. tomato. Description: In vivo preventive test on Pseudomonas syringae pv. tomato (bacterial speck on tomato). The conditions noted are these: 31 ppm of active ingredient, evaluated 5 or 6 days after inoculation, read-out: efficacy. The method in brief: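 Young tomato plants sprayed with compound in acetone/DMSO/Tween diluted in water; solvent-only controls. Inoculated 72 h later by spraying leaves with bacterial suspension; 4 days saturated atmosphere then 1–2 days at 70–80% RH, 22 °C day/20 °C night. Efficacy scored 5–6 days post-inoculation, 0% = control, 100% = no disease.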

A short description of data set [6]: LogP by HPLC on reversed phase columns (EEC directive 79/831 Annex V.A8). The note with it: reversed phase HPLC columns. In kind it is physicochemical. The method, boiled down:
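Reversed-phase HPLC per EEC directive 79/831 Annex V.A8. Calibrated with straight-chain alkan-2-ones (C3–C16) of known LogP, LogP from retention times by linear interpolation between successive alkanones. Lambda-max taken from UV spectra (200–400 nm) at chromatographic peak maxima.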

The subject of data set [7] is Colletotrichum lindemuthianum. Description: Colletotrichum lindemuthianum in vitro cell test. In kind it is cell-based. The conditions noted are these: 144 h, 20 ppm of active ingredient, 6 days incubation, read-out: efficacy (inhibition of fungal growth). On the procedure: as §1, §2
A spore suspension of C. lindemuthianum was prepared and diluted to the desired spore density.
Fungicides were evaluated for their ability to inhibit spores germination and mycelium growth in liquid culture assay. The compounds were added in the desired concentration to the culture medium with spores. After 6 days incubation, fungi-toxicity of compounds was determined by spectrometric measurement of mycelium growth. Inhibition of fungal growth was determined by comparing the absorbance values in wells containing the fungicides with the absorbance in control wells without fungicides.

Data set [8] deals with Colletotrichum lindemuthianum. Briefly: In vivo preventive test on Colletotrichum lindemuthianum (Antrachnose on bean). The note with it: 144 h, inoculation 72 h after spraying, evaluated 6 days after inoculation, read-out: efficacy; for pest or weed control at 500 ppm: 500 ppm of active ingredient. The method, boiled down: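 Young bean plants sprayed preventively with compound in acetone/DMSO/Tween diluted in water, then spore-inoculated 72 h later. Incubation 24 h at 20° C./100% RH, then 5 days at 20° C./90% RH; scored 6 days post-inoculation as % efficacy (0% = solvent-treated control, 100% = no disease).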

Setting [9] is: method [a]: LC-UV, acidic range, 0.1% formic acid in water and acetonitrile as eluent (linear gradient 10% to 95% acetonitrile).
Where [10] appears, read: method [a]: LC-UV, in an acidic range, with 0.1% formic acid in water and acetonitrile as eluent (linear gradient from 10% to 95% acetonitrile).

Take `CCOC(=O)C(CSC(C)=O)NC(=O)c1sc(Cl)c(Cl)c1Cl` (stereo not shown) [I.145]: the fold induction at 75 ppm in data set [1] was above 2. For the same molecule, the fold induction at 300 ppm in data set [1] is above 2. The inhibition at 20 ppm (in the data set on Alternaria alternata; in [2]; in [3]) was at most 30% in each case. Also, the pest or weed control at 31 ppm was in the range of 90 to 100% in the data set with Peronospora parasitica, 90 to 100% in data set [4] and 80 to 89% in data set [5]. The pest or weed control at 125 ppm (in the data set with Peronospora parasitica; in [4]; with Uromyces appendiculatus) was 90 to 100% throughout. In addition, the chromatographic logP in data set [6] (setting [9]) is 3.41.
Consider `CCOC(=O)C[C@H](NC(=O)c1sc(Cl)c(Cl)c1Cl)C(=O)OCC` [I.138], for which the fold induction at 75 ppm in data set [1] was above 2. Besides, the fold induction at 300 ppm in data set [1] was above 2. Moreover, the inhibition at 20 ppm (with Alternaria alternata; in [2]; in data set [3]) was at most 30% throughout. Moreover, the pest or weed control at 31 ppm with Peronospora parasitica was in the range of 90 to 100%; in data set [4] it was 70 to 79%; in data set [5], 90 to 100%. In addition, the pest or weed control at 125 ppm with Peronospora parasitica and with Uromyces appendiculatus was 90 to 100% throughout. Further, the chromatographic logP in data set [6] (setting [9]) was determined as 4.12.
For the molecule `CC(C)[C@H](NC(=O)c1sc(Cl)c(Cl)c1Cl)C(N)=O` [I.147], the inhibition at 20 ppm (in the data set on Alternaria alternata; in [7]; in data set [2]; in data set [3]) was at most 30% each time. Further, the pest or weed control at 125 ppm in the data set on Peronospora parasitica and in the data set on Uromyces appendiculatus was 90 to 100% each time. For the same molecule, the pest or weed control at 500 ppm with Peronospora parasitica and in the data set with Uromyces appendiculatus was 90 to 100% in each case. Also, in the data set with Uromyces appendiculatus (8 ppm), the pest or weed control at 8 ppm was at least 90%. Further, the chromatographic logP in data set [6] (setting [9]) was 2.67.
Turning to `COC(=O)C(NC(=O)c1sc(Cl)c(Cl)c1Cl)C(=O)OC` [I.007], the fold induction at 75 ppm in data set [1] is above 2. For the same molecule, the fold induction at 300 ppm in data set [1] was above 2. The inhibition at 20 ppm (in the data set with Alternaria alternata; in data set [7]; in data set [2]; in data set [3]) was at most 30% throughout. The values for the pest or weed control at 31 ppm (with Peronospora parasitica; in [5]) were 90 to 100% and 80 to 89%, respectively. The pest or weed control at 125 ppm in the data set on Peronospora parasitica and with Uromyces appendiculatus was 90 to 100% in each case. Moreover, the chromatographic logP in data set [6] (setting [10]) worked out at 3.31.
As to `CCSC(=O)C1(NC(=O)c2sc(Cl)c(Cl)c2Cl)CC1` [I.011, S-ethyl 1-{[(3,4,5-trichloro-2-thienyl)carbonyl]amino}cyclopropanecarbothioate], in [1], the fold induction at 75 ppm was above 2. For the same molecule, the fold induction at 300 ppm in data set [1] was above 2. Besides, the inhibition at 20 ppm (in the data set with Alternaria alternata; in [7]; in [2]; in [3]) was at most 30% in each case. In addition, in the data set with Peronospora parasitica, the pest or weed control at 31 ppm lay in the range of 90 to 100%. Besides, in the data set on Peronospora parasitica, the pest or weed control at 125 ppm lay within 90 to 100%. The pest or weed control at 500 ppm in the data set with Peronospora parasitica was 90 to 100%. Besides, the chromatographic logP in [6] (given in the preparation examples, method not marked) came to 4.01; in data set [6] (setting [10]) it was 4.01.
For the molecule `CCOC(=O)C(NC(=O)c1sc(Cl)c(Cl)c1Cl)c1ccccc1` (stereo not shown) [I.064], in [1], the fold induction at 300 ppm is above 2. Moreover, the inhibition at 20 ppm (in the data set on Alternaria alternata; in data set [7]; in data set [2]; in data set [3]) was at most 30% each time. In addition, the pest or weed control at 500 ppm in data set [8] was in the range of 80 to 89%; with Peronospora parasitica, 90 to 100%; in the data set with Uromyces appendiculatus it was 90 to 100%. Moreover, in the data set with Peronospora parasitica, the pest or weed control at 31 ppm was 80 to 89%. Besides, the pest or weed control at 125 ppm lay within 90 to 100% with Peronospora parasitica and 70 to 79% in [4]. Besides, the chromatographic logP in data set [6] (setting [10]) worked out at 4.89.
On to `CCOC(=O)C(CO)NC(=O)c1sc(Cl)c(Cl)c1Cl` (stereo not shown) [I.078], for which, in data set [1], the fold induction at 75 ppm is above 2. Besides, the fold induction at 300 ppm in data set [1] was above 2. The inhibition at 20 ppm (with Alternaria alternata; in [2]; in [3]) was at most 30% throughout. In addition, the pest or weed control at 500 ppm (in data set [8]; in the data set with Peronospora parasitica; in the data set with Uromyces appendiculatus) was 90 to 100% throughout. Further, the pest or weed control at 31 ppm in the data set with Peronospora parasitica fell in the range of 90 to 100%. Further, the pest or weed control at 125 ppm with Peronospora parasitica and in the data set with Uromyces appendiculatus was 90 to 100% in each case. This molecule yielded a chromatographic logP in data set [6] (setting [10]) of 2.75.
Turning to `CCOC(=O)CC[C@H](NC(=O)c1sc(Cl)c(Cl)c1Cl)C(=O)OCC` [I.137], in [1], the fold induction at 75 ppm was above 2. Besides, the fold induction at 300 ppm in data set [1] was above 2. Also, the inhibition at 20 ppm (in the data set with Alternaria alternata; in [7]; in data set [2]; in data set [3]) was at most 30% in each case. For the same molecule, the values for the pest or weed control at 31 ppm (in data set [8] (31 ppm of active ingredient); with Peronospora parasitica; in data set [4]) were 80 to 89%, 90 to 100% and 80 to 89%, respectively. Besides, the pest or weed control at 125 ppm in the data set on Peronospora parasitica and in the data set on Uromyces appendiculatus was 90 to 100% throughout. This molecule also gave a chromatographic logP in data set [6] (setting [9]) of 4.21.

Broadly, the inhibition is the drop in the measured response relative to a control, in per cent. The chromatographic logP is lipophilicity estimated from chromatographic retention. Read a high chromatographic logP as higher lipophilicity.
